Literature values in US6982252B2, “Inhibition of vacuolar proton ATPase activity and/or the modulation of acidic organelle function sensitizes cells to radiation, chemotherapy and biological agents” (Memorial Sloan-Kettering Cancer Center, priority 2000, dated 2006).

Conditions: cited from earlier work
[1] = subcutaneous, 1.4 mol/kg/day for 14 days

In the case of bafilomycin A1, the “toxicity when injected intravenously” value (intravenous, Keeling, 1997) is given as “toxic”, the bone readsorption [1] is given as “increased bone readsorption” and the toxicity [1] is given as “non-toxic”. For the same substance, the “tolerability when administered subcutaneously” value (subcutaneous) was “tolerated”.
